Assay results: US8592580B2, “Substituted triazinone derivatives” (Sanofi, priority 2008, dated 2013)

What was measured:
GSK3β = GSK3β (Homo sapiens, UniProt P49841); experiment: Inhibitory activity against GSK3β (33P-ATP phosphorylation of prephosphorylated GS1 peptide, four protocols); type: biochemical; conditions: protocol 3: 7.5 μM GS1 peptide, 10 μM ATP, 50 mM Hepes pH 7.2, one hour at room temperature
Description: Inhibitory Activity of the Medicament of the Present Invention Against GSK3β Four different protocols can be used. In a first protocol: 7.5 μM of prephosphorylated GS1 peptide and 10 μM ATP (containing 300,000 cpm of ^33P-ATP) were incubated in 25 mM Tris-HCl, pH 7.5, 0.6 mM DTT, 6 mM MgCl2, 0.6 mM EGTA, 0.05 mg/ml BSA buffer for 1 hour at room temperature in the presence of GSK3beta (total reaction volume: 100 microliters). In a second protocol: 4.1 μM of prephosphorylated GS1 peptide and 42 μM ATP (containing 260,000 cpm ^33P-ATP) were incubated in 80 mM Mes-NaOH, pH 6.5, 1 mM Mg acetate, 0.5 mM EGTA, 5 mM 2-mercaptoethanol, 0.02% Tween 20, 10% glycerol buffer for 2 hours at room temperature in the presence of GSK3beta. In a third protocol: 7.5 μM of prephosphorylated GS1 peptide and 10 μM ATP (containing 300,000 cpm of ^33P-ATP) were incubated in 50 mM Hepes, pH 7.2, 1 mM DTT, 1 mM MgCl2, 1 mM EGTA, 0.01% Tween 20 buffer for one hour at room temperature in the presence of GSK3beta (total reaction volume: 100 microliters). […] Incorporated ^33P radioactivity was determined by liquid scintillation spectrometry. […]

Chain of GSK3β (P49841 whole entry): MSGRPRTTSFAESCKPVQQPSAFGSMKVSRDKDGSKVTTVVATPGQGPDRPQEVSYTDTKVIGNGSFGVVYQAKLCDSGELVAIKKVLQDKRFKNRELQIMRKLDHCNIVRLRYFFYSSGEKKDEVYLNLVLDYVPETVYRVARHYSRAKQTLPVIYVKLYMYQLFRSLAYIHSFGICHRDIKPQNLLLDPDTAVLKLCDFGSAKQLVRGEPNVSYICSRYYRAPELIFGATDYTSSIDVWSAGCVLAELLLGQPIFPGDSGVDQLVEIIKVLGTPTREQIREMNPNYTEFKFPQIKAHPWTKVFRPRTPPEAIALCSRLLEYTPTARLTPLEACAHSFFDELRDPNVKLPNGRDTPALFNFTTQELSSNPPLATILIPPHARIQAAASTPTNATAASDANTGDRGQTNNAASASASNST

Row | Compound | IC50 (GSK3β) | melting point
1 | Cn1c(NCC(O)c2ccccc2)nc(-c2ccncc2)nc1=O (racemic) [Compound No. 1, (+/−)-6-(2-Hydroxy-2-phenyl-ethylamino)-1-methyl-4-pyridin-4-yl-1H-[1,3,5]triazin-2-one] | 372 nM | 242 to 244 °C
2 | O=c1nc(-c2ccncc2)nc(NCCc2ccccc2)[nH]1 [compound 5, 6-(2-Phenylethyl)amino-4-pyridin-4-yl-1H-[1,3,5]triazin-2-one] | 50 nM | 235 to 237 °C
